From US20260262643A1, “HERBICIDAL BENZOXAZINES” (FMC CORPORATION, priority 2022, published 2026)

What was measured:
[1] = test system: horseweed; assay: Test A postemergence; type: in vivo, Erigeron canadensis; conditions: postemergence, 10 days, visual injury, 0 to 100 scale (0 no effect, 100 complete control)
Summary of the method: (§1)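 Seeds in loam–sand blend received a directed preemergence soil spray of compound in non-phytotoxic solvent with surfactant; postemergence plants (2–10 cm, one- to two-leaf stage) were sprayed with the same formulation. After 10 days in greenhouse, injury was rated visually versus untreated controls, 0 (no effect) to 100 (complete control).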

[2] = test system: ryegrass, Italian; assay: Test A postemergence; type: in vivo, Lolium multiflorum; conditions: 500 g ai/ha, postemergence, 10 days, visual injury, 0 to 100 scale (0 no effect, 100 complete control)
Summary of the method: as §1

[3] = test system: ragweed; assay: Test A preemergence; type: in vivo, Ambrosia artemisiifolia
Summary of the method: as §1

[4] = test system: galium; assay: Test A postemergence; type: in vivo, Galium aparine; conditions: postemergence, 10 days, visual injury, 0 to 100 scale (0 no effect, 100 complete control)
Summary of the method: as §1

[5] = test system: wheat; assay: Test A preemergence; type: in vivo, Triticum aestivum
Summary of the method: as §1

[6] = test system: barnyardgrass; assay: Test B flooded paddy test; type: in vivo, Echinochloa crus-galli; conditions: 250 g ai/ha, Flood, 13 days, 0 to 100 scale (0 no effect, 100 complete control)
Summary of the method: (§2)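 Plants at the 2-leaf stage were flooded to 3 cm above the soil, and test compounds were applied directly into the paddy water, with that depth held throughout. After 13 days in a greenhouse, injury was rated visually against untreated controls on a 0–100 scale (100 = complete control).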

[7] = test system: goosegrass; assay: Test A preemergence; type: in vivo, Eleusine indica
Summary of the method: as §1

[8] = test system: corn; assay: Test A preemergence; type: in vivo, Zea mays
Summary of the method: as §1

[9] = test system: pigweed, palmer; assay: Test A preemergence; type: in vivo, Amaranthus palmeri
Summary of the method: as §1

[10] = test system: soybean; assay: Test A preemergence; type: in vivo, Glycine max
Summary of the method: as §1

[11] = test system: ryegrass, Italian; assay: Test A preemergence; type: in vivo, Lolium multiflorum
Summary of the method: as §1

[12] = test system: foxtail, giant; assay: Test A postemergence; type: in vivo, Setaria faberi; conditions: postemergence, 10 days, visual injury, 0 to 100 scale (0 no effect, 100 complete control)
Summary of the method: as §1

[13] = test system: blackgrass; assay: Test A postemergence; type: in vivo, Alopecurus myosuroides
Summary of the method: as §1

[14] = test system: wheat; assay: Test A postemergence; type: in vivo, Triticum aestivum; conditions: 500 g ai/ha, postemergence, 10 days, visual injury, 0 to 100 scale (0 no effect, 100 complete control)
Summary of the method: as §1

[15] = test system: pigweed, palmer; assay: Test A postemergence; type: in vivo, Amaranthus palmeri; conditions: 500 g ai/ha, postemergence, 10 days, visual injury, 0 to 100 scale (0 no effect, 100 complete control)
Summary of the method: as §1

[16] = test system: goosegrass; assay: Test A postemergence; type: in vivo, Eleusine indica; conditions: postemergence, 10 days, visual injury, 0 to 100 scale (0 no effect, 100 complete control)
Summary of the method: as §1

[17] = test system: soybean; assay: Test A postemergence; type: in vivo, Glycine max; conditions: 500 g ai/ha, postemergence, 10 days, visual injury, 0 to 100 scale (0 no effect, 100 complete control)
Summary of the method: as §1

[18] = test system: ducksalad; assay: Test B flooded paddy test; type: in vivo, Heteranthera limosa; conditions: 250 g ai/ha, Flood, 13 days, 0 to 100 scale (0 no effect, 100 complete control)
Summary of the method: as §2

[19] = test system: rice; assay: Test B flooded paddy test; type: in vivo, Oryza sativa; conditions: 250 g ai/ha, Flood, 13 days, 0 to 100 scale (0 no effect, 100 complete control)
Summary of the method: as §2

[20] = test system: foxtail, giant; assay: Test A preemergence; type: in vivo, Setaria faberi
Summary of the method: as §1

[21] = test system: ragweed; assay: Test A postemergence; type: in vivo, Ambrosia artemisiifolia; conditions: 500 g ai/ha, postemergence, 10 days, visual injury, 0 to 100 scale (0 no effect, 100 complete control)
Summary of the method: as §1

[22] = test system: sedge, umbrella; assay: Test B flooded paddy test; type: in vivo, Cyperus difformis; conditions: 250 g ai/ha, Flood, 13 days, 0 to 100 scale (0 no effect, 100 complete control)
Summary of the method: as §2

[23] = test system: oat, wild; assay: Test A preemergence; type: in vivo, Avena fatua
Summary of the method: as §1

[24] = test system: corn; assay: Test A postemergence; type: in vivo, Zea mays; conditions: postemergence, 10 days, visual injury, 0 to 100 scale (0 no effect, 100 complete control)
Summary of the method: as §1

[25] = test system: kochia; assay: Test A preemergence; type: in vivo, Bassia scoparia
Summary of the method: as §1

[26] = test system: kochia; assay: Test A postemergence; type: in vivo, Bassia scoparia; conditions: postemergence, 10 days, visual injury, 0 to 100 scale (0 no effect, 100 complete control)
Summary of the method: as §1

[27] = test system: oat, wild; assay: Test A postemergence; type: in vivo, Avena fatua; conditions: 500 g ai/ha, postemergence, 10 days, visual injury, 0 to 100 scale (0 no effect, 100 complete control)
Summary of the method: as §1

[28] = 125 g ai/ha, visual injury after 10 days, 0 to 100 scale, 0 is no effect, 100 is complete control
[29] = 500 g ai/ha, 0 to 100 scale (0 no effect, 100 complete control), 10 days

## CC(C)c1ncn(-c2cccc(C(=O)N3C[C@H](C)Oc4c(Cl)cccc43)c2)n1 [Compound 78]
[1]; 125 g ai/ha
  Plant response rating, Horseweed: 0
[1]; 500 g ai/ha
  Plant response rating, Horseweed: 0
[2]
  Plant response rating, Ryegrass, Italian: 100
[3]; [28]
  Plant response rating, Ragweed: 0
[3]; [29]
  Plant response rating, Ragweed: 90
[4]; 125 g ai/ha
  Plant response rating, Galium: 100
[4]; 500 g ai/ha
  Plant response rating, Galium: 100
[5]; [28]
  Plant response rating, Wheat: 20
[5]; [29]
  Plant response rating, Wheat: 80
[6]
  Plant response rating, Barnyardgrass: 0
[7]; [28]
  Plant response rating, Goosegrass: 90
[7]; [29]
  Plant response rating, Goosegrass: 100
[8]; [28]
  Plant response rating, Corn: 30
[8]; [29]
  Plant response rating, Corn: 30
[9]; [28]
  Plant response rating, Pigweed, Palmer: 100
[9]; [29]
  Plant response rating, Pigweed, Palmer: 100
[10]; [28]
  Plant response rating, Soybean: 0
[10]; [29]
  Plant response rating, Soybean: 100
[11]; [28]
  Plant response rating, Ryegrass, Italian: 90
[11]; [29]
  Plant response rating, Ryegrass, Italian: 100
[12]; 125 g ai/ha
  Plant response rating, Foxtail, Giant: 50
[12]; 500 g ai/ha
  Plant response rating, Foxtail, Giant: 90
[13]; 125 g ai/ha, postemergence, 10 days, visual injury, 0 to 100 scale (0 no effect, 100 complete control)
  Plant response rating, Blackgrass: 50
[13]; 500 g ai/ha, Postemergence, 0 to 100 scale
  Plant response rating, Blackgrass: 90
[14]
  Plant response rating, Wheat: 50
[15]
  Plant response rating, Pigweed, Palmer: 90
[16]; 125 g ai/ha
  Plant response rating, Goosegrass: 40
[16]; 500 g ai/ha
  Plant response rating, Goosegrass: 80
[17]
  Plant response rating, Soybean: 100
[18]
  Plant response rating, Ducksalad: 75
[19]
  Plant response rating, Rice: 0
[20]; [28]
  Plant response rating, Foxtail, Giant: 100
[20]; [29]
  Plant response rating, Foxtail, Giant: 100
[21]
  Plant response rating, Ragweed: 80
[22]
  Plant response rating, Sedge, Umbrella: 0
[23]; [28]
  Plant response rating, Oat, Wild: 80
[23]; [29]
  Plant response rating, Oat, Wild: 90
[24]; 125 g ai/ha
  Plant response rating, Corn: 10
[24]; 500 g ai/ha
  Plant response rating, Corn: 60
[25]; [28]
  Plant response rating, Kochia: 90
[25]; [29]
  Plant response rating, Kochia: 100
[26]; 125 g ai/ha
  Plant response rating, Kochia: 70
[26]; 500 g ai/ha
  Plant response rating, Kochia: 100
[27]
  Plant response rating, Oat, Wild: 90
